13 compounds from patent US20250109140A1, “5-[5-(PIPERIDIN-4-YL)THIENO[3,2-C]PYRAZOL-2-YL]INDAZOLE DERIVATIVES AND RELATED COMPOUNDS AS MODULATORS FOR SPLICING NUCLEIC ACIDS AND FOR THE TREATMENT OF PROLIFERATIVE DISEASES” (REMIX THERAPUTICS INC., priority 2022, published 2025) can be followed below.

Holding throughout (format): cell-based
In one assay the test system is Target C mRNA. Kind of assay: Splicing RT-qPCR gene panel, Target C canonical junction (CJ) mRNA. The conditions noted are these: Homo sapiens; Table 8; larger gene panel, decrease in CJ mRNA levels. Summed up:
(§1)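 A673 or K562 cells were exposed for 24 h at 37 °C to an 11-point 3-fold dilution series (top 10 uM final, DMSO ≤0.25%). Lysates were analysed by one-step RT-qPCR for canonical (CJ) and alternative (AJ) junctions. Values were normalized to GAPDH, GUSB or PPIA and to DMSO (ΔΔCt), then converted to percentage response.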

The test system of a further assay is MYB mRNA. Kind of assay: Splicing RT-qPCR assay, MYB canonical (CJ) and alternative (AJ) junction mRNA. The note with it: Homo sapiens; for EC50: AC50 = 50% response in AJ mRNA increase. Summed up: as §1
On the technique in general: Quantitative PCR measures a nucleic acid by following its amplification.

A further assay concerns HTT mRNA. The assay is described as follows: Splicing RT-qPCR assay, HTT canonical (CJ) and alternative (AJ) junction mRNA. The conditions noted are these: Homo sapiens; for EC50: AC50 = 50% response in AJ mRNA increase. Summed up:
as §1

The test system of a further assay is SMN2 mRNA. Kind of assay: Splicing RT-qPCR gene panel, SMN2 canonical junction (CJ) mRNA. The conditions noted are these: Homo sapiens; Table 8; larger gene panel, decrease in CJ mRNA levels. Summed up: as §1
[1] abbreviates: Table 7, RT-qPCR, A673 or K562 cells, 24 hours treatment.
The mark [2] stands for this setting: Table 7, IC50 = 50% response in CJ mRNA decrease, RT-qPCR, A673 or K562 cells, 24 hours treatment, read-out: MYB CJ.
Setting [3] is: Table 8, larger gene panel, decrease in CJ mRNA levels, read-out: MYB CJ IC50.
Setting [4] is: Table 7, IC50 = 50% response in CJ mRNA decrease, RT-qPCR, A673 or K562 cells, 24 hours treatment, read-out: HTT CJ.
[5] abbreviates: Table 8, larger gene panel, decrease in CJ mRNA levels, read-out: HTT CJ IC50.

Where two headings read alike, the source gives them in different places. Some results are limits rather than exact numbers.

For the compound `Cn1cc2cc(-c3nc4sc(N5CCC56CCNC6)cc4s3)cc(F)c2n1` (centres unmarked) [Compound 200, 5-(5-{1,6-diazaspiro[3.4]octan-1-yl}thieno[2,3-d][1,3]thiazol-2-yl)-7-fluoro-2-methy-lindazole], the IC50 with Target C mRNA was over 10 µM; in the assay with MYB mRNA (setting [2]) it was over 10 µM; in the assay on MYB mRNA (setting [3]), over 10 µM; in the assay on HTT mRNA (setting [4]) it was over 10 µM; in the assay on HTT mRNA (setting [5]) it was over 10 µM; in the assay on SMN2 mRNA it was 1 to 10 µM. Further, the EC50 in the assay with MYB mRNA (setting [1]) and with HTT mRNA (setting [1]) was over 10 µM throughout.
Consider `Cn1cc2cc(-c3nc4sc(N5CCC56CCNCC6)cc4s3)cc(F)c2n1` [Compound 201, 1-[2-(7-fluoro-2-methylindazol-5-yl)thieno[2,3-d][1,3]thiazol-5-yl]-1,7-diazaspiro[3.5]nonane], for which the IC50 in the assay on Target C mRNA, in the assay with MYB mRNA (setting [2]), in the assay on MYB mRNA (setting [3]), in the assay on HTT mRNA (setting [4]), in the assay with HTT mRNA (setting [5]) and in the assay with SMN2 mRNA was over 10 µM each time. Further, the EC50 with MYB mRNA (setting [1]) and in the assay on HTT mRNA (setting [1]) was over 10 µM each time.
Regarding `Cn1cc2cc(-c3nc4sc(N5CCC56CCCNC6)cc4s3)cc(F)c2n1` (centres unmarked) [Compound 202, 1-[2-(7-fluoro-2-methylindazol-5-yl)thieno[2,3-d][1,3]thiazol-5-yl]-1,6-diazaspiro[3.5]nonane], the IC50 in the assay with Target C mRNA is 1 to 10 µM; in the assay with MYB mRNA (setting [2]) it was over 10 µM; with MYB mRNA (setting [3]), over 10 µM; with HTT mRNA (setting [4]), over 10 µM; with HTT mRNA (setting [5]) it was over 10 µM; in the assay on SMN2 mRNA, 1 to 10 µM. The EC50 in the assay on MYB mRNA (setting [1]) and in the assay on HTT mRNA (setting [1]) was over 10 µM each time.
Consider `CN1CCCC2(CCN2c2cc3sc(-c4cc(F)c5nn(C)cc5c4)nc3s2)C1` (centres unmarked) [Compound 203, 1-[2-(7-fluoro-2-methylindazol-5-yl)thieno[2,3-d][1,3]thiazol-5-yl]-6-methyl-1,6-diazaspiro[3.5]nonane], for which the IC50 was over 10 µM in the assay on Target C mRNA; over 10 µM in the assay with MYB mRNA (setting [2]); over 10 µM in the assay with MYB mRNA (setting [3]); over 10 µM in the assay with HTT mRNA (setting [4]); over 10 µM with HTT mRNA (setting [5]); 1 to 10 µM in the assay on SMN2 mRNA. The EC50 with MYB mRNA (setting [1]) and in the assay with HTT mRNA (setting [1]) was over 10 µM throughout.
With `CN1CCC2(CC1)CCN2c1cc2sc(-c3cc(F)c4nn(C)cc4c3)nc2s1` [Compound 204, 1-[2-(7-fluoro-2-methylindazol-5-yl)thieno[2,3-d][1,3]thiazol-5-yl]-7-methyl-1,7-diazaspiro [3.5]nonane], the IC50 with Target C mRNA, in the assay on MYB mRNA (setting [2]), in the assay on MYB mRNA (setting [3]), with HTT mRNA (setting [4]), in the assay on HTT mRNA (setting [5]) and in the assay on SMN2 mRNA was 1 to 10 µM each time. Besides, the EC50 in the assay with MYB mRNA (setting [1]) and in the assay with HTT mRNA (setting [1]) was 1 to 10 µM each time.
Consider `Cn1cc2c(O)c(-c3nc4sc(C5CCNCC5)cc4s3)ccc2n1` [Compound 231, 2-methyl-5-[5-(piperidin-4-yl)thieno[2,3-d][1,3]thiazol-2-yl]indazol-4-ol], for which the IC50 is over 10 µM in the assay on Target C mRNA; over 10 µM in the assay on MYB mRNA (setting [2]); 1 to 10 µM in the assay on MYB mRNA (setting [3]); 1 to 10 µM in the assay with HTT mRNA (setting [4]); 1 to 10 µM in the assay on HTT mRNA (setting [5]); 0.1 to 1 µM in the assay on SMN2 mRNA. Besides, the concentration giving a half-maximal response (EC50) with MYB mRNA (setting [1]) and with HTT mRNA (setting [1]) was 1 to 10 µM throughout.
As to `Cn1cc2cc(-c3nc4sc(N5CCC6(CCN6)C5)cc4s3)cc(F)c2n1` (centres unmarked) [Compound 233, 5-(5-{1,6-diazaspiro[3.4]octan-6-yl}thieno[2,3-d][1,3]thiazol-2-yl)-7-fluoro-2-methylindazole], the IC50 with Target C mRNA is over 10 µM; in the assay with MYB mRNA (setting [2]), 1 to 10 µM; in the assay with MYB mRNA (setting [3]), 1 to 10 µM; with HTT mRNA (setting [4]), 1 to 10 µM; in the assay with HTT mRNA (setting [5]) it was 1 to 10 µM; with SMN2 mRNA, under 0.1 µM. The EC50 with MYB mRNA (setting [1]) and with HTT mRNA (setting [1]) was 1 to 10 µM in each case.
Regarding `Cc1cn2nc(-c3nc4sc(C5CNC5)cc4s3)cc(C)c2n1` [Compound 235, 3-(2-{2,8-dimethylimidazo[1,2-b]pyridazin-6-yl}thieno[2,3-d][1,3]thiazol-5-yl) azetidine], the IC50 in the assay with Target C mRNA fell in the range of 1 to 10 µM; in the assay with MYB mRNA (setting [2]), 1 to 10 µM; in the assay with MYB mRNA (setting [3]), 1 to 10 µM; in the assay with HTT mRNA (setting [4]), 1 to 10 µM; with HTT mRNA (setting [5]), 1 to 10 µM; with SMN2 mRNA it was 0.1 to 1 µM. For the same compound, the EC50 with MYB mRNA (setting [1]) and in the assay on HTT mRNA (setting [1]) was 1 to 10 µM each time.
`Cn1cc2cc(-c3nc4sc(C5(O)CCNCC5)cc4s3)cc(F)c2n1` [Compound 236, 4-[2-(7-fluoro-2-methylindazol-5-yl)thieno[2,3-d][1,3]thiazol-5-yl]piperidin-4-ol]: the IC50 lay in the range of 1 to 10 µM in the assay with Target C mRNA; 0.1 to 1 µM in the assay with MYB mRNA (setting [2]); 1 to 10 µM in the assay with MYB mRNA (setting [3]); 0.1 to 1 µM in the assay with HTT mRNA (setting [4]); 1 to 10 µM with HTT mRNA (setting [5]); 0.1 to 1 µM in the assay on SMN2 mRNA. In addition, the EC50 with MYB mRNA (setting [1]) and with HTT mRNA (setting [1]) was 1 to 10 µM in each case.
`COc1c(-c2nc3sc(C4CCNCC4)cc3s2)cc(F)c2nn(C)cc12` [Compound 237, 7-fluoro-4-methoxy-2-methyl-5-[5-(piperidin-4-yl)thieno[2,3-d][1,3]thiazol-2-yl]indazole]: the IC50 in the assay with Target C mRNA is over 10 µM; with MYB mRNA (setting [2]), 1 to 10 µM; in the assay with MYB mRNA (setting [3]), over 10 µM; with HTT mRNA (setting [4]), over 10 µM; with HTT mRNA (setting [5]) it was over 10 µM; in the assay with SMN2 mRNA, over 10 µM. In addition, the EC50 in the assay on MYB mRNA (setting [1]) and in the assay with HTT mRNA (setting [1]) was over 10 µM each time.
For the compound `Cc1cc(-c2nc3sc(C4CCNCC4)cc3s2)cc2cn(C)nc12` [Compound 238, 2,7-dimethyl-5-[5-(piperidin-4-yl)thieno[2,3-d][1,3]thiazol-2-yl]indazole], the IC50 with Target C mRNA is 0.1 to 1 µM; with MYB mRNA (setting [2]), 0.1 to 1 µM; in the assay on MYB mRNA (setting [3]), 0.1 to 1 µM; in the assay with HTT mRNA (setting [4]), under 0.1 µM; with HTT mRNA (setting [5]), under 0.1 µM; in the assay with SMN2 mRNA it was under 0.1 µM. The figures for the EC50 in the assay with MYB mRNA (setting [1]) and in the assay with HTT mRNA (setting [1]) were 0.1 to 1 µM and under 0.1 µM, respectively.
Take `Cc1cn2cc(-c3nc4sc(C5CCNCC5)cc4s3)nc2c(C)n1` [Compound 239, 4-(2-{6,8-dimethylimidazo[1,2-a]pyrazin-2-yl}thieno[2,3-d][1,3]thiazol-5-yl)piperidine]: the IC50 in the assay on Target C mRNA fell in the range of 1 to 10 µM; in the assay with MYB mRNA (setting [2]), 1 to 10 µM; in the assay on MYB mRNA (setting [3]), 1 to 10 µM; in the assay with HTT mRNA (setting [4]) it was 0.1 to 1 µM; with HTT mRNA (setting [5]), 1 to 10 µM; with SMN2 mRNA it was 0.1 to 1 µM. In addition, the EC50 in the assay on MYB mRNA (setting [1]) and in the assay on HTT mRNA (setting [1]) was 1 to 10 µM each time.
Take `Cn1cc2cc(-c3nc4sc([C@H]5CCNC[C@H]5F)cc4s3)cc(F)c2n1` [Compound 240, 7-fluoro-5-{5-[(3S,4S)-3-fluoropiperidin-4-yl]thieno[2,3-d][1,3]thiazol-2-yl}-2-methylindazole]: the IC50 is over 10 µM with Target C mRNA; 1 to 10 µM in the assay with MYB mRNA (setting [2]); 1 to 10 µM in the assay with MYB mRNA (setting [3]); 1 to 10 µM in the assay with HTT mRNA (setting [4]); 1 to 10 µM in the assay on HTT mRNA (setting [5]); 0.1 to 1 µM in the assay with SMN2 mRNA. The half-maximal effective concentration (EC50) in the assay on MYB mRNA (setting [1]) and with HTT mRNA (setting [1]) was 1 to 10 µM throughout.
